Values of other authors, collected in patent US20060062074A1, “Method for intracellular modifications within living cells using pulsed electric fields” (priority 2001, published 2006).

Test system: a variety of cell lines
Settings: 0.0075% Triton X-100; positive control; literature (Borner et al. 1994)

For Triton X-100, the induction of apoptosis is given as “induce apoptosis”.
